The test system of this assay is Drosophila larvae expressing wild-type TDP-43 in motor neurons. In words: Drug screen: rescue of lethality caused by wild-type TDP-43 expression in motor neurons (D42 Gal4). The assay is classed as in vivo. The note with it: for Preliminary rescue result: adults with normal wings: transgene WT2. An excerpt: […] Larvae expressing TDP-43 (wild type or mutant, as shown) are raised on drug containing food.
[…] Larvae expressing TDP-43 (wt or mutant) were raised on drug containing food.
Using a Drosophila model of ALS based on TDP-43 that recapitulates several aspects of the disease pathophysiology (33, 35), a drug screen aimed at identifying FDA approved compounds with neuroprotective potential in vivo were designed (FIG. 37A). […] This phenotype was used to screen for drug candidates with therapeutic potential as determined by their ability to rescue pupal lethality and produce viable adults with extended wings (FIG. 37A). […]
UAS TDP-43 males were crossed with D42-Gal4 female virgins on fly food containing either DMSO or pioglitazone. For DMSO controls, the same volume of DMSO as the corresponding drug concentration was added. Bromophenol blue was added to a final concentration of approximately 0.02% to ensure homogeneity. Crosses were made on drug food with 3 female virgins and 2 males in each vial, and were maintained at 25° C. unless noted. The parents were discarded after 5-7 days then the vials were screened for adult progeny with straight wings from day 14 to day 25. All adults were screened for TDP-43 expression by visualizing the YFP tag. Total number of pupae was counted on day 25. Percent survival was calculated using the formula (total number of straight-winged adults/total number of pupae)×100. All experiments were performed in triplicate.

Where a name gives a salt, the structure may show the parent alone.

Consider `Cc1noc(NS(=O)(=O)c2ccc(N)cc2)c1C` [Sulfisoxazole], for which, under “50 μM in fly food”, the “Preliminary rescue result: adults with normal wings” value (“Preliminary rescue result: adults” below) worked out at 1 Adult Normal Wings Adults.
`C[N+]1(C)[C@@H]2CC[C@H]1C[C@@H](OC(=O)C(CO)c1ccccc1)C2` (stereo partly shown) [Methylatropine Nitrate]: the “Preliminary rescue result: adults” value (30 μM in fly food) is listed as 2 Adult Normal Wings Adults.
As to `CC(NCCc1ccc(O)cc1)C(O)c1ccc(O)cc1` (stereo not shown) [Ritodrine], the “Preliminary rescue result: adults” value (50 μM in fly food) worked out at 2 Adults Normal Wings.
`O=C1c2c(O)cccc2Cc2cccc(O)c21` [Anthralin]: the “Preliminary rescue result: adults” value (50 μM in fly food) was 1 Adult Normal Wings Adults.
The same measure, in the same setting: to `CCOc1cc(CC(=O)N[C@@H](CC(C)C)c2ccccc2N2CCCCC2)ccc1C(=O)O` [Repaglinide] belongs 1 Adult Normal Wings Adults.
Take `COc1cc2nc(N3CCN(C(=O)c4ccco4)CC3)nc(N)c2cc1OC` [Prazosin Hydrochloride]: under “30 μM in fly food”, the “Preliminary rescue result: adults” value is given as 1 Adult Normal Wings Adults.
Still for that read-out and setting: to `CC1(C)S[C@@H]2[C@H](NC(=O)[C@H](NC(=O)N3CCNC3=O)c3ccccc3)C(=O)N2[C@H]1C(=O)[O-].[Na+]` [Azlocillin Na Salt] belongs 1 Adult Normal Wings Adults.
With `CCN(C(C)=O)c1cccc(-c2ccnc3c(C#N)cnn23)c1` [Zaleplon], the “Preliminary rescue result: adults” value (50 μM in fly food) is recorded as 1 Adult Normal Wings Adults.
As for `NC(=O)C(c1ccccc1)(c1ccccc1)[C@@H]1CCN(CCc2ccc3c(c2)CCO3)C1` [Darifenacin Hydrobromide], the “Preliminary rescue result: adults” value (30 μM in fly food) amounted to 3 Adult Normal Wings Adults.
Turning to `C[C@]12CC[C@H]3[C@@H](CCC4=CC(=O)CC[C@@]43C)[C@@H]1CC[C@@H]2C(=O)CO` [Deoxycorticosterone], the “Preliminary rescue result: adults” value (30 μM in fly food) came to 1 Adult Normal Wings Adults.
For `OC(Cn1cncn1)(Cn1cncn1)c1ccc(F)cc1F` [Fluconazole], the “Preliminary rescue result: adults” value (50 μM in fly food) came to 1 Adult Normal Wings Adults.
Take `NS(=O)(=O)c1cc2c(cc1Cl)NC(CC1CCCC1)NS2(=O)=O` (stereo not shown) [Cyclopenthiazide]: the “Preliminary rescue result: adults” value (30 μM in fly food) worked out at 1 Adult Normal Wings Adults.
Consider `C=CCC1(CC(C)C)C(=O)NC(=O)NC1=O` [Butalbital], for which the “Preliminary rescue result: adults” value (50 μM in fly food) is recorded as 1 Adult Normal Wings Adults.
Regarding `CCCCCCCCNC(C)C(O)c1ccc(SC(C)C)cc1` (stereo not shown) [Suloctidil], the “Preliminary rescue result: adults” value (50 μM in fly food) came to 6 Adults Normal Wings.
On to `Cn1cc[nH]c1=S` [Methimazole], for which the “Preliminary rescue result: adults” value (30 μM in fly food) turned out to be 1 Adult Normal Wings Adults.
The same measure, in the same setting: to `Nc1cc(-c2ccncc2)c[nH]c1=O` [Amrinone] belongs 1 Adult Normal Wings Adults; to `COCC(=O)Nc1c(I)c(C(=O)NCC(O)CO)c(I)c(C(=O)N(C)CC(O)CO)c1I` (stereo not shown) [Iopromide], 1 Adult Normal Wings Adults.
With `CCN(CC)C(=O)c1ccc(O)c(OC)c1` [Ethamivan], the “Preliminary rescue result: adults” value (50 μM in fly food) is on record as 1 Adult Normal Wings Adults.
Turning to `C[C@]12CCC(=O)C=C1CC[C@H]1[C@@H]3CC[C@](O)(C(=O)CO)[C@@]3(C)C[C@H](O)[C@@]12F` [Fludrocortisone], the “Preliminary rescue result: adults” value (50 μM in fly food) worked out at 2 Adults Normal Wings.
For the molecule `CC(C)(C(=O)O)c1ccc(C(O)CCCN2CCC(C(O)(c3ccccc3)c3ccccc3)CC2)cc1` (stereo not shown) [Fexofenadine Hcl], under “30 μM in fly food”, the “Preliminary rescue result: adults” value is reported as 1 Adult Normal Wings Adults.
With `CN(C)CCCO[C@@H]1[C@H]2OC(C)(C)O[C@H]2O[C@@H]1[C@H](O)CO` [Amiprilose HCl], the “Preliminary rescue result: adults” value (30 μM in fly food) turned out to be 1 Adult Normal Wings Adults.
`CCCc1nc(C)c2c(=O)[nH]c(-c3cc(S(=O)(=O)N4CCN(CC)CC4)ccc3OCC)nn12` [Vardenafil]: the “Preliminary rescue result: adults” value (50 μM in fly food) amounted to 3 Adult Normal Wings Adults.
Still for that read-out and setting: to `COC(=O)N/N=C/c1c[n+]([O-])c2ccccc2[n+]1[O-]` [Carbadox] belongs 1 Adult Normal Wings Adults.
Turning to Verteporfin, where the note is “30 μM in fly food”, the “Preliminary rescue result: adults” value amounted to 1 Adult Normal Wings Adults.
As for `CC(C)(C)NCC(O)COc1cccc2c1CCC(=O)N2` (stereo not shown) [Carteolol HCl], the “Preliminary rescue result: adults” value (50 μM in fly food) was found to be 2 Adults Normal Wings.
Take `C[C@H](O)C(=O)Nc1c(I)c(C(=O)NC(CO)CO)c(I)c(C(=O)NC(CO)CO)c1I` [Iopamidol]: for the setting “30 μM in fly food”, the “Preliminary rescue result: adults” value is given as 3 Adult Normal Wings Adults.
`O=C1NCCN1c1ncc([N+](=O)[O-])s1` [Niridazole]: for the setting “50 μM in fly food”, the “Preliminary rescue result: adults” value is on record as 3 Adult Normal Wings Adults.
With `COc1ccccc1OCCNCC(O)COc1cccc2[nH]c3ccccc3c12` (stereo not shown) [Carvedilol], the “Preliminary rescue result: adults” value (30 μM in fly food) came to 1 Adult Normal Wings Adults.
With `Nc1c2c(nc3ccccc13)CCCC2` [Tacrine Hydrochloride Hydrate], the “Preliminary rescue result: adults” value (50 μM in fly food) amounted to 4 Adults Normal Wings.
Turning to `CNCCCC1c2ccccc2C=Cc2ccccc21` [Protriptyline Hydrochloride], the “Preliminary rescue result: adults” value (30 μM in fly food) was 1 Adult Normal Wings Adults.
The same measure, in the same setting: to `CC(=O)N[C@@H](CC(C)C)C(=O)O` [N-Acetyl-L-Leucine] belongs 1 Adult Normal Wings Adults; to `CCC(=O)O[C@@](Cc1ccccc1)(c1ccccc1)[C@@H](C)CN(C)C` [Levopropoxyphene Napsylate], 2 Adult Normal Wings Adults.
As for `Cc1ccsc1/C=C/C1=NCCCN1C` [Morantel Tartrate], under “50 μM in fly food”, the “Preliminary rescue result: adults” value is given as 1 Adult Normal Wings Adults.
The same measure, in the same setting: to `CN1CCN(C(c2ccccc2)c2ccccc2)CC1` [Cyclizine Hcl] belongs 1 Adult Normal Wings Adults.
Consider `COc1cc2nc(N3CCN(C(=O)C4COc5ccccc5O4)CC3)nc(N)c2cc1OC` (stereo not shown) [Doxazosin Mesylate], for which the “Preliminary rescue result: adults” value (30 μM in fly food) was 1 Adult Normal Wings Adults.
Same read-out and setting: to Carbinoxamine Maleate Salt belongs 1 Adult Normal Wings Adults; to `CC(C(=O)[O-])c1cccc(Oc2ccccc2)c1.CC(C(=O)[O-])c1cccc(Oc2ccccc2)c1.O.O.[Ca+2]` (stereo not shown) [Fenoprofen Ca Salt Dihydrate], 2 Adult Normal Wings Adults.
In the case of `C#CCN(C)Cc1ccccc1` [Pargyline Hydrochloride], the “Preliminary rescue result: adults” value (50 μM in fly food) turned out to be 1 Adult Normal Wings Adults.
`Cc1nc2n(c(=O)c1CCN1CCC(c3noc4cc(F)ccc34)CC1)CCCC2` [Risperidone]: the “Preliminary rescue result: adults” value (30 μM in fly food) stood at 1 Adult Normal Wing Adults.
On the same count and under the same terms, to `CCC(=O)O[C@]1(C(=O)SCF)[C@H](C)C[C@H]2[C@@H]3C[C@H](F)C4=CC(=O)C=C[C@]4(C)[C@@]3(F)[C@@H](O)C[C@@]21C` [Fluticasone Propionate] belongs 1 Adult Normal Wings Adults.
Still for that read-out and setting: to `COc1cnc(NS(=O)(=O)c2ccc(N)cc2)nc1` [Sulfameter] belongs 3 Adult Normal Wings Adults; to `COc1ccc(C2CNC(=O)C2)cc1OC1CCCC1` (stereo not shown) [Rolipram], 1 Adult Normal Wings Adults.
On to `CC(N)C(O)c1ccccc1` (stereo not shown) [Phenylpropanolamine Hydrochloride], for which the “Preliminary rescue result: adults” value (50 μM in fly food) is recorded as 1 Adult: 1 Normal Wing Adults.
With `CC[N+](C)(CC)CCOC(=O)C1c2ccccc2Oc2ccccc21` [Methantheline Bromide], the “Preliminary rescue result: adults” value (30 μM in fly food) is recorded as 1 Adult Normal Wings Adults.
Regarding `CN(C)CC/C=C1/c2ccccc2Sc2ccc(Cl)cc21` [Chlorprothixene], where the note is “50 μM in fly food”, the “Preliminary rescue result: adults” value amounted to 3 Adults Normal Wings.
For the molecule `Nc1ccc(/N=N/c2ccccc2)c(N)n1` [Phenazopyridine Hydrochloride], where the note is “30 μM in fly food”, the “Preliminary rescue result: adults” value is listed as 1 Adult Normal Wings Adults.
The same measure, in the same setting: to `CCCc1nc2c(C)cc(-c3nc4ccccc4n3C)cc2n1Cc1ccc(-c2ccccc2C(=O)O)cc1` [′Telmisartan] belongs 2/2 Adult Normal Wings.
The same measure, in the same setting: to `C[N+](C)(CCOc1ccccc1)Cc1ccccc1.O=C([O-])c1cc2ccccc2cc1O` [BepheniμM Hydroxynaphthoate] belongs 2 Adult Normal Wings Adults.
`Clc1ccccc1C(c1ccccc1)(c1ccccc1)n1ccnc1` [Clotrimazole]: where the note is “50 μM in fly food”, the “Preliminary rescue result: adults” value amounted to 1 Adult Normal Wings Adults.
The same measure, in the same setting: to `CCN1CCC[C@H]1CNC(=O)c1c(O)c(Cl)cc(Cl)c1OC` [Raclopride] belongs 2 Adults Normal Wings.
In the case of `CNC(=C[N+](=O)[O-])NCCSCc1csc(CN(C)C)n1` [Nizatidine], the “Preliminary rescue result: adults” value (30 μM in fly food) came out at 2 Adult Normal Wings Adults.
Same read-out and setting: to `O=C(c1ccccc1)c1ccc2n1CCC2C(=O)O` (stereo not shown) [Ketorolac Tromethamine] belongs 2 Adult Normal Wings Adults.
Same read-out and setting: to `CCCOc1cc(N)ccc1C(=O)OCCN(CC)CC` [Propoxycaine Hcl] belongs 1 Adult Normal Wings Adults.
As to `CN(C)C(=N)N=C(N)N` [Metformin], under “Wild-type TDP-43, 25 μM, out of 15-20 pupae”, the “Rescue Effect (out of 15-20 pupae) (drug conc.)” value is on record as 2 adults.
For the molecule `CCCCC(CC)CNC(=N)NC(=N)NCCCCCCNC(=N)NC(=N)NCC(CC)CCCC` (stereo not shown) [Alexidine Dihydrochloride], the “Preliminary rescue result: adults” value (30 μM in fly food) worked out at 6 Adults Normal Wings.

Source of the values: US20150143553A1, “Methods And Compositions Comprising A Drosophila Model Of Amyotrophic Lateral Sclerosis” (priority 2013, published 2015).
